Measured values published in publication PMC6013267 (Medicinal chemistry research : an international journal for …, 2018).

Experiments:
[1] = system: Aβ plaques; assay: [3H]PIB competition autoradiography in postmortem human AD frontal cortex slices; format: binding; conditions: for displacement of [3H]PIB (words, discussion): concentration not restated
[2] = biological target: α4β2* nAChRs (Rattus norvegicus, UniProt P09483+P12390); conditions: 100 nM drug; rat brain slices
[3] = system: amyloid β; conditions: ref Salloway et al. 2014, Doody et al. 2014, Siemers et al. 2016, cited from earlier work
[4] = 10 μM drug, control GM/WM approx. 3

α4β2* nAChRs, sequence (P09483 31-630): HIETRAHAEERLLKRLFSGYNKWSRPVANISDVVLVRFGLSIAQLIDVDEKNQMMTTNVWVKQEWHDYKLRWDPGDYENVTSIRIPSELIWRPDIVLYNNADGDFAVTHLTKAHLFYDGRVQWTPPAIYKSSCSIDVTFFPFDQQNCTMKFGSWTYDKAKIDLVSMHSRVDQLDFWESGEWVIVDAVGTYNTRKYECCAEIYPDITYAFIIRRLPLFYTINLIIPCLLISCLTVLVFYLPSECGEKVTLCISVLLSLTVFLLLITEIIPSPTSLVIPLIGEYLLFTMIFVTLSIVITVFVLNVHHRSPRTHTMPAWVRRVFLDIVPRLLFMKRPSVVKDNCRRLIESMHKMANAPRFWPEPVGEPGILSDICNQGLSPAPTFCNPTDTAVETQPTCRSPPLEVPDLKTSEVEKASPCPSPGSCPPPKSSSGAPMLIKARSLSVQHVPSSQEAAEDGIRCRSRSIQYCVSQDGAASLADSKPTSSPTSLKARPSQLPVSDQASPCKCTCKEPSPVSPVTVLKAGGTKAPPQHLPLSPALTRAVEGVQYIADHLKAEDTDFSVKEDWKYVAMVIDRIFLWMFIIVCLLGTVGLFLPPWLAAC
α4β2* nAChRs, sequence (P12390 25-500): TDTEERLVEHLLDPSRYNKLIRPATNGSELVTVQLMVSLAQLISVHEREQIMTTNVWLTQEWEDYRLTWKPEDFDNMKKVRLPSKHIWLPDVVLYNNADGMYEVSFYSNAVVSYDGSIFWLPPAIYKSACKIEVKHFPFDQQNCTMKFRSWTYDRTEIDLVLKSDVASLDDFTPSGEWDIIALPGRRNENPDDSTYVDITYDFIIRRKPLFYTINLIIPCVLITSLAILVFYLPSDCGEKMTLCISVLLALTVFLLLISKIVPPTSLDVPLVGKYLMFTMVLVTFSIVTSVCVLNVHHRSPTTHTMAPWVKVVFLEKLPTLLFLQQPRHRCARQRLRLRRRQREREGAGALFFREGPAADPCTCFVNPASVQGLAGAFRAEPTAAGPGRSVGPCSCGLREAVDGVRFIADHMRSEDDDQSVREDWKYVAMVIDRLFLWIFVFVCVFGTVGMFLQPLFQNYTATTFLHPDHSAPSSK

Compound	effect on [3H]PIB binding ([1]; 1 μM drug)	GM/WM ratio of [3H]PIB binding [1, 4]	displacement of [3H]PIB (words, discussion) [1]	other results
COc1cc(/C=C/C(=O)O)ccc1O [FA, ferulic acid]	did not significantly affect the binding of [^3H]PIB	2	little displacement	GM/WM ratio of [3H]PIB binding ([1]; 1 μM drug, control GM/WM ~2): ~ 2; [3H]PIB levels in GM and WM ([1]; 10 μM drug): higher levels of [^3H]PIB
5-(3-methoxy-4-propyloxycinnamate)-3-(2-(S)-pyrrolidinylmethoxy)pyridine [GKS-007]	some inhibitory effect	–	–	GM/WM ratio of [3H]PIB binding ([1]; 1 μM drug, control GM/WM ~2): no significant GM/WM ratio reduction; displacement of [3H]cytisine [2]: Displacement of significant amounts
5-(3′-Ethyl 3-methoxy-4-propyloxycinnamate)-3-(2-(S)-pyrrolidinylmethoxy)pyridine [GKS-006]	–	–	–	displacement of [3H]cytisine [2]: Displacement of significant amounts
COc1cc(/C=C/C(=O)CC(=O)/C=C/c2ccc(O)c(OC)c2)ccc1O [CUR, curcumin]	–	1.5	significant displacement effect	reduction in GM/WM [3H]PIB binding ([1]; 10 μM drug): 50%
CNc1ccc(N=Nc2ccc(N(C)C)cc2)cc1 [TAZA, 4-methylamino-4'-N,N-dimethylaminoazobenzene]	significant displacement of [^3H]PIB	–	greater than observed by CUR	–
FEX-(3-methoxy-4-(1′-aminobutyryloxy)cinnamic acid [KD-003]	–	2.4	–	[3H]PIB levels in GM and WM ([1]; 10 μM drug): higher levels of [^3H]PIB
solanezumab: Anti-amyloid β monoclonal antibody	–	–	–	clinical outcome ([3]; mild to moderate AD): Did not improve clinical outcomes. Trials continue in early stage of disease; Aβ plaque load (measured by PET imaging) before and after antibody treatment [3]: did not change significantly
